The data set is described as follows: Solubility test in water (stepwise addition of water, ultrasonic waves, visual observation of precipitate). The note with it: for solubility at 1 min: from solid; for solubility in water as a fraction of the solubility of 2,7hpp2SF in water: one atmosphere, RT, relative to comparative 2,7hpp2SF. Type of data set: physicochemical. On the procedure:
In this example, the solubility of the organic compounds that can be used in the display apparatus of one embodiment of the present invention is described. Note that the solubility test was conducted at a pressure of one atmosphere at room temperature (RT).
The mixture was irradiated with ultrasonic waves for 1 minute. The mixture was visually observed, and a white powdered precipitate was observed. This means part of 2′,7′tBu-2,7hpp2SF remained undissolved. […] This process was repeated until the white powdered precipitate was not visually observed any more. Thus, the solubility was examined.
The mixture was irradiated with ultrasonic waves for 1 minute. Whether part of the mixture remained undissolved was visually confirmed, and a white powdered precipitate was observed. […] This process was repeated.
The mixture was irradiated with ultrasonic waves for 1 minute. The mixture was observed, and a white powdered precipitate was observed. This means part of 2,7hpp2SF remained undissolved. […] This process was repeated until the white powdered precipitate was not visually observed any more. Thus, the solubility was examined.

≈ marks a conversion by molar mass, not a printed value. Some results are limits rather than exact numbers.

This note sets out measurements from patent US20230348400A1, “ORGANIC COMPOUND, LIGHT-EMITTING DEVICE, AND LIGHT-EMITTING APPARATUS” (SEMICONDUCTOR ENERGY LABORATORY CO., LTD., priority 2022, published 2023).

In general, solubility refers to the concentration that dissolves in the medium under given conditions.

Regarding `c1ccc2c(c1)-c1ccccc1C21c2cc(N3CCCN4CCCN=C43)ccc2-c2ccc(N3CCCN4CCCN=C43)cc21` [2,7hpp2SF, 1,1′-(9,9′-spirobi[9H-fluorene]-2,7-diyl)bis(1,3,4,6,7,8-hexahydro-2H-pyrimido[1,2-a]pyrimidine), reference compound], the solubility at 1 min lay within 330 to 390 µg/mL (≈ 559 to 660 µM).
As to `CC(C)(C)c1ccc2c(c1)C1(c3cc(N4CCCN5CCCN=C54)ccc3-c3ccc(N4CCCN5CCCN=C54)cc31)c1cc(C(C)(C)C)ccc1-2` [Structural Formula (100), 1,1′-(2′,7′-di-tert-butyl-9,9′-spirobi[9H-fluorene]-2,7-diyl)bis(1,3,4,6,7,8-hexahydro-2H-pyrimido[1,2-a]pyrimidine)], the solubility at 1 min lay within 58 to 61 µg/mL and the “solubility in water as a fraction of the solubility of 2,7hpp2SF in water” value was “less than or equal to ⅕”.
`CC(C)(C)c1ccc2c(c1)C1(c3ccccc3-c3ccc(N4CCCN5CCCN=C54)cc31)c1cc(C(C)(C)C)ccc1-2` [Structural Formula (101), 1-(2′,7′-di-tert-butyl-9,9′-spirobi[9H-fluoren]-2-yl)-1,3,4,6,7,8-hexahydro-2H-pyrimido[1,2-a]pyrimidine]: the solubility at 1 min is less than 2.3 µg/mL and the “solubility in water as a fraction of the solubility of 2,7hpp2SF in water” value is “less than or equal to 1/140”. The “weight that is dissolved in 1.0 mL of water” value (pressure of one atmosphere, room temperature (RT)) is recorded as “less than 0.0023 mg”.
